# Patent US8895502B2, “β2-glycoprotein I peptide inhibitors” (Kansas State University Research Foundation, priority 2010, dated 2014)
# Entries after “also recorded” stand apart in the source; their conditions may differ. Ends that are not written are not given here.
# Key:
# C57Bl/6 mice = assay: Intestinal ischemia/reperfusion, mucosal injury score; format: in vivo, mouse; parameters: key to Injury: + indicates significant difference from Sham treated mice; − indicates not significantly different from C57B1/6 sham treated mice; +/− indicates no significant difference from either C57B1/6 mice subjected to either Sham or IR; conditions: for IR-induced intestinal mucosal damage (injury score): C57Bl/6 mice, peptide 40 μM i.v. 5 min prior to ischemia, 2 hours reperfusion; for IR-induced intestinal injury: Example 2, peptides administered after reperfusion (15-, 30-, or 60-minutes post-reperfusion)
# Protocol: C57Bl/6 and Rag-1^−/− mice were subjected to ischemia followed by reperfusion similar to previously described studies (Moses, T. et al., J. Leukoc. Biol. 86:971-980 (2009)). Briefly, ketamine (16 mg/kg) and xylazine (80 mg/kg) were used to anesthetize the mice. Buprenorphine (0.06 mg/kg) was then administered for pain. A midline laparotomy was performed to expose the abdominal cavity of the mice, which were then allowed to equilibrate for 30 min. Body temperature was maintained at 37° C. using a water-circulating heat pad. Placing a warm, saline moistened piece of gauze over the abdominal cavity prevented peritoneal desiccation. […] Ischemia was noted by the intestine changing from a pink color to a gray color. After 30 min of ischemia, the clamp was removed and the intestines were allowed to reperfuse for 5, 10, 15, or 120 min. […] Mice treated with the various β2-GPI peptides underwent the same procedure with i.v. administration of the peptides (40 μM) 5 min prior to artery occlusion. Peptides 296, 305, and 296Cys to Ser were dissolved in N. Saline (0.9% NaCl) and injected i.v. in 100-μL volumes. Peptides 100 and 181 were dissolved in DMSO prior to diluting 1/100 in N. Saline. Additional mice received peptides prior to Sham treatment.
# Immediately after euthanasia, a 2-cm mid jejunum tissue section was immediately fixed in 10% buffered formalin, embedded in paraffin, and 8 μm sections were cut transversely and hematoxylin and eosin (H&E) stained. Mucosal injury was graded on a six-tiered scale, as described previously (Fleming, S. D. et al., J. Immunol. 169:2126-2133 (2002)). Briefly, the average damage score of the intestinal section (75-150 villi) was determined after grading each villus. […] Photomicrographs were obtained from H&E stained slides using a 20×, 0.5 Plan Fluor objective on a Nikon 80i microscope and images acquired at room temperature using a Nikon DS-5M camera with DS-L2 software.
# (§1) Ischemia/reperfusion was performed on ketamine/xylazine anesthetized mice as described in Example 1 above. After 2 hours of reperfusion, the mice were euthanized and sera, liver, spleen, and 2 cm sections of the small intestine, approximately 10 cm distal to the gastroduodenal junction, were collected for histological and other analyses. Mice treated with the various β2-GPI peptides underwent the same procedure with i.v. administration of the peptides. Most studies assumed 2 mL total blood volume in a mouse and administered peptides to a final concentration of 40 μM at 5 min prior to ischemia. Dose response studies administered 1-40 μM peptide at 5 min prior to ischemia and time course studies administered 40 μM peptide at 5 min prior to ischemia, and at 15-, 30- or 60-min post-ischemia (i.e., during reperfusion).
# After euthanasia, tissue sections were fixed and stained following the procedures outlined in Example 1. Mucosal injury (SMI) was also graded on a six-tiered scale, as described in Example 1.
# [1] = tested on: thioglycollate-elicited macrophages, nitric oxide; assay: β2-GPI stimulated macrophage nitric oxide production; format: cell-based; conditions: mouse β2-GPI 10 μg/mL, peptide 40 μM, 18 hours
# Protocol: C57Bl/6 mice were injected i.p. with 1 mL thioglycollate (4%) 4 days prior to peritoneal lavage. Peritoneal exudate macrophages or the B cell line, LK35.2, were seeded at 2×10^6 cells/mL in 24-well or 96-well plates. After macrophage adherence, both cell types were treated with mouse β2-GPI (10 μg/mL) with or without peptide (40 μM). Additional cells were unstimulated as a negative control or stimulated with 10 μg/mL LPS (E. coli 055B5) as a positive control. Supernatants were collected 18-20 hours after stimulation and analyzed for nitrite by Griess reagent (Hoffman & Fleming, Cell Biochem. Funct. 28:686-694 (2010)) or IL-6 by Milliplex MAP kit (Millipore) following the manufacturer's instructions using a Luminex 200 with xPONENT 3.1 and Analyst software (Millipore).
# peroxidase = assay: Intestinal IR, total tissue peroxidase; format: in vivo, mouse; conditions: for total peroxidase production by the intestinal tissues: administered up to 60 min post-reperfusion
# Protocol: as §1
# Total peroxidase, LTB4, PGE2, IL-6, IL-12p40, and IL-12p70 concentrations were determined using the procedures described in Example 1.
# LTB4 = assay: Intestinal IR, ex vivo LTB4 generation; format: in vivo, mouse; conditions: 40 μM peptide at 5 min prior to ischemia and 15-, 30- or 60-min post-ischemia
# VEGF = assay: Spontaneous breast cancer model, VEGF RNA expression; format: in vivo, mouse; conditions: mammary tumors, compared to saline treated animals
# Protocol: mRNA was isolated from the tumor samples that were homogenized in Trizol. The concentration of mRNA was evaluated by nanodrop and the purity by bioanalyzer. cDNA was then synthesized using random primers with the Quanta cDNA synthesis kit. RT-PCR was then performed on a 1:100 dilution of cDNA for 18s rRNA. After 3 min denaturing at 95° C., the real-time PCR reaction consisted of 50 cycles (of 10 sec at 95° C., 20 sec at 58° C., and 10 sec at 72° C.), followed by a melt curve increasing at intervals of 0.5° C. from 60° C. to 95° C. RT-PCR was also performed on cDNA samples for CD31 and VEGF which are endothelial markers of angiogenesis. After subtracting 18s Ct values, peptide treated dCt values were normalized to saline treated samples and fold change calculated as ddCt. Primers were obtained from Integrated DNA Technology (Coraville, Iowa) and sequences are in the table below.
# [2] = C57Bl/6 mice subjected to IR, peptide 40 μM i.v. 5 min prior to artery occlusion
# [3] = 10 μM peptide 5 min prior to IR
# [4] = administered at 60 min post-reperfusion
# [5] = administered at either 5- or 15-min post-reperfusion, 2-hour assay
# [6] = treatment at both 30 min and 60 min post-reperfusion
# [7] = dose response, similar concentrations of each peptide
# [8] = peptide administered prior to IR
Substance,Injury (C57Bl/6 mice; [2]),IR-induced intestinal mucosal damage (injury score) (C57Bl/6 mice),β2-GPI-induced nitric oxide production [1],Injury (C57Bl/6 mice; [3]),IR-induced intestinal injury (C57Bl/6 mice),intestinal injury (C57Bl/6 mice; [4]),intestinal injury (C57Bl/6 mice; [5]),intestinal injury (C57Bl/6 mice; [6]),total peroxidase production by the intestinal tissues (peroxidase),intestinal peroxidase production (peroxidase; [7]),intestinal peroxidase production (peroxidase; [8]),"IR-induced LTB4, time course of administration (LTB4)",RNA expression of VEGF (VEGF),intestinal damage (C57Bl/6 mice; 4 μM peptide 5 min prior to IR),IR-induced intestinal mucosal damage (injury score) (C57Bl/6 mice; listed as 296c-s)
H-IHFYCKNKEKKCSYTVEAHCRDGTI-OH (cysteine pairing not given here) [peptide 296],−,attenuated mucosal damage,,,,,,,,,,,,,
"H-KNISFACNPGFFLNG-NH2 [peptide 100, 16, reference compound]",+,IR-induced intestinal damage similar to untreated mice,,,,,,,,,,,,,
"H-KKCSYTVEAHCRDGTIEIPSCFKEHS-OH (cysteine pairing not given here) [peptide 305, 10]",−,attenuated mucosal damage,significantly attenuated,optimally attenuated,effective for attenuating,attenuated,effective in preventing intestinal injury,significantly decreased,significantly decreased,attenuated,significantly attenuated,,,,
"H-IPSCFKEHSSLAFWKTDASELTPC-NH2 (cysteine pairing not given here) [peptide 322, 18]",+,IR-induced intestinal damage similar to untreated mice,,,,,,,,,,,,,
H-IHFYSKNKEKKSSYTVEAHSRDGTI-OH [peptide 296Cys-Ser],−,attenuated mucosal damage; also recorded: confirmed to attenuate injury,significantly attenuated,optimally attenuated,effective for attenuating,attenuated,effective in preventing intestinal injury,significantly decreased,significantly decreased,attenuated,significantly attenuated,significantly inhibited,significantly decreased,attenuated,attenuate actual epithelial injury more effectively
